The values below are quoted from earlier work in patent US20040009962A1, “Combined estrogen blockade of the breast with exemestane and raloxifene” (priority 2000, published 2004).

Where two headings read alike, the source gives them in different places. Where only a bound is given, the exact number is not on record here.

For series [1] the following is noted: except at relatively high doses.
The subject of series [2] is rats.
For series [3] the following is noted: Ames, V79, E. coli, DNA repair on rat hepatocytes, micronucleus, in vivo and in vitro chromosome aberration.
Series [4] concerns DMBA-induced rat mammary tumor. The note with it: DMBA-induced rat mammary tumor model.
Series [5] deals with metastatic breast cancer. The note with it: 25 mg/day.
The test system of series [6] is whole body aromatization. The conditions noted are these: 10 postmenopausal women with advanced breast cancer.
In series [7] the test system is 7, 12-dimethyl-benzanthracene (DMBA)-induced mammary tumors. The note with it: rats.
Series [8] deals with human lymphocytes.
Series [9] deals with rabbits.
For series [10], the system named is metastatic breast cancer. The conditions noted are these: 25 mg/day orally, 241 women.
In series [11] the test system is metastatic breast cancer.
In series [12] the test system is plasma estrogen levels (E2, E1, E1S). The note with it: suppression of E2, E1 and E1S, postmenopausal women.
In series [13] the test system is MCF-7 breast cancer cells. The note with it: estrogen deficient state vs supplemented with estrogen.
Series [14] concerns early stage breast cancer.
The subject of series [15] is metastatic breast cancer. This is another data set of the same source.
The conditions of series [16]: deep vein thrombosis, pulmonary embolism, retinal vein thrombosis.
Series [17] has as its system DMBA- and NMN-induced mammary carcinogenesis. The conditions noted are these: may be less when compared with tamoxifen.
For series [18], the system named is ovariectomized rat.
The test system of series [19] is healthy postmenopausal women.
The test system of series [20] is metastatic breast cancer. The conditions noted are these: 200 mg/day.
Series [21] concerns endometrium. The conditions noted are these: baseline vs 8 weeks of treatment.
The subject of series [22] is postmenopausal women.
The test system of series [23] is healthy men. The note with it: 200 mg/day orally.
In series [24] the test system is rat uterus.
Series [25] has as its system rats. This is another data set of the same source.
[26] abbreviates: all doses, interim analysis, vs placebo.

In the case of `C=C1C[C@@H]2[C@H](CC[C@]3(C)C(=O)CC[C@@H]23)[C@@]2(C)C=CC(=O)C=C12` [exemestane, Exemestane], the tolerability result in series [1] is reported as “good tolerability”. For the same compound, the embryotoxic dose in series [2] is ≥ 50 mg/kg; in series [9] it was ≥ 270 mg/kg. In addition, the teratogenicity entry in series [2] and in [9] was “not teratogenic” throughout. Besides, the “genotoxic potential, all tests except chromosome aberration in human lymphocytes” value in [3] was “negative”. Besides, the “appearance of new tumors” value in [4] is on record as “reduced”. Further, in [4], the objective response rate is recorded as 44%. The overall response rate was 11% in series [5] (87 women, 95% CI 6-20) and 33% in [11] (patients with visceral disease). The “SD>6 months” value in [5] (additional patients) is reported as 17.2%. The “mean suppression of whole body aromatization” value in series [6] is recorded as 97.9%. Besides, in series [6] (pretreatment 2.059%), the “whole body aromatization on treatment (mean)” value was 0.042%. The “efficacy against DMBA-induced mammary tumors” value in series [7] is reported as “highly effective”. Further, the “concentration from which the chromosome aberration test was positive” value in series [8] is ≥ 12000 ng/mL. Further, the “overall success rate (CR+PR+SD>6 months)” value in [10] is on record as 25%; in series [11] (25 mg) it was 47%. Moreover, the “overall objective response rate” value in [10] (third- and fourth-line) is on record as 7%. For the same compound, the “overall response rate (CR+PR)” value was 28% in series [11] (25 mg, 128 postmenopausal women, 95% CI 21-37) and 34% in [11] (88 patients who had measurable disease). In addition, the “median duration of response” value in series [11] (95% CI 11-20 months) was 14 months. Also, the “stable disease>6 months” value in series [11] (treated population) is on record as 19%. For the same compound, the “dose at which inhibition of plasma estrogen levels became apparent” value in series [12] is “about 1 mg”.
Consider `CC/C(=C(\c1ccccc1)c1ccc(OCCN(C)C)cc1)c1ccccc1` [tamoxifen, Tamoxifen], for which, in series [13], the tumor mitotic rate entry is “marked reduction”. Besides, in series [4], the “appearance of new tumors” value is “reduced” and the objective response rate was 29%. The “annual rates of recurrence and mortality” value in series [14] (adjuvant therapy, premenopausal and postmenopausal women) is recorded as “reduce”. In addition, the “reduction of the risk of contralateral breast cancer” value in series [14] (five years of adjuvant tamoxifen vs no adjuvant therapy) is recorded as 47%. In addition, in [15] (premenopausal women, metastatic breast cancer), the response rates was 20 to 45%. In addition, the objective response rates in series [15] (unselected postmenopausal women with metastatic disease) is recorded as 30 to 40%. Also, in series [15] (women with ER-positive and PR-positive tumors), the response rates is recorded as 60-70%.
On to `O=C(c1ccc(OCCN2CCCCC2)cc1)c1c(-c2ccc(O)cc2)sc2cc(O)ccc12` [raloxifene, Raloxifene], for which, in series [16], the “risk of venous thromboembolic events” value is “increased risk”. In [17], the anti-tumor activity entry is recorded as “anti-tumor activity”. Further, in series [18], the bone mineral density entry was “increases” and the serum cholesterol result was “decreases”. In addition, in series [19] (setting [26]), the “bone mineral density in the hip, spine, femur and total body” value is “increase”; the “markers of bone turnover” value is “decrease”. In addition, in series [19] (in vivo), the HDL cholesterol result is recorded as “unchanged”; the “serum total and LDL cholesterol” value was “significantly decreased”; the side effects entry was “increased hot flashes and leg cramps”; the tolerability entry is reported as “well tolerated”. In [19] (transvaginal ultrasound, any treatment group), the endometrial thickness result is recorded as “unaffected”. In series [20] (14 patients), the tolerability entry is “well tolerated”. The objective responses entry in series [20] (tamoxifen-refractory group) is “no objective responses”. Besides, in series [21], the “change in the endometrium on uterine biopsy” value is “no change”. In addition, in [22] (p=0.232), the “relative risk of endometrial cancer” value is given as 0.38. Also, in series [22] (raloxifene 60 or 120 mg/day vs controls), the “risk reduction of breast cancer” value is given as 58%. Also, in series [22] (two cases diagnosed within one month of randomization excluded, p=0.045), the “relative risk of endometrial cancer” value is reported as 0.13. Further, the “response to exogenous estrogen (anti-estrogen effect)” value in series [23] is reported as “blunt”. Further, in series [24] (administered alone), the “agonist activity on the rat uterus” value is reported as “little agonist activity”. Further, the “uterotropic action of estradiol” value in series [24] (immature rat) is “inhibits”. Also, the “DNA adducts or hepatocarcinogenesis” value in [25] is “no reports”.
For estrogen, the “change in the endometrium on uterine biopsy” value in series [21] is recorded as “significant endometrial stimulation”.
